Laboratory results: PubChem BioAssay AID330 (DTP/NCI, 2004)
“And” between values parts separate entries of the source, which are not always exact repeats. Equal values may be shown once. Toxic doses and inconclusive results are not listed. Rule for the calls: active = survival T/C of 150% or more; inactive = T/C below 125% in these data. Square brackets hold non-standard residues; d marks the D form. Peptide text beside a SMILES is read from it. * marks the point of attachment. ξ: configuration not given here. Cbz = O=C(OCc1ccccc1)*; ξNle = CCCCC(N)C(=O)O

System: P388 leukemia ip, CD2F1 mice, survival T/C
Assay: NCI In Vivo Anticancer Drug Screen. Data for tumor model P388 Leukemia (intraperitoneal) in CD2F1 (CDF1) mice
Conditions: endpoint: median survival time, higher = longer survival
Procedure, shortened: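 Mice carrying the transplanted tumor received test compound or vehicle. Survival was recorded in each group, and the value is the treated-group measurement divided by that of the vehicle-treated control group.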

[1] = dose: 50.0 mg/kg/injection, schedule: Q01DX009 (ip), vehicle: Klucel (hydroxypropylcellulose) (HPC)
[2] = dose: 50.0 mg/kg/injection, schedule: Q01DX009 (ip), vehicle: suspension in saline
[3] = dose: 100.0 mg/kg/injection, schedule: Q01DX009 (ip), vehicle: Klucel (hydroxypropylcellulose) (HPC)
[4] = dose: 100.0 mg/kg/injection, schedule: Q01DX009 (ip), vehicle: suspension in saline
[5] = dose: 200.0 mg/kg/injection, schedule: Q01DX009 (ip), vehicle: Klucel (hydroxypropylcellulose) (HPC)
[6] = dose: 200.0 mg/kg/injection, schedule: Q01DX009 (ip), vehicle: suspension in saline
[7] = dose: 50.0 mg/kg/injection, schedule: Q01DX009 (ip), vehicle: saline with Tween-80
[8] = dose: 100.0 mg/kg/injection, schedule: Q01DX009 (ip), vehicle: saline with Tween-80
[9] = dose: 200.0 mg/kg/injection, schedule: Q01DX009 (ip), vehicle: saline with Tween-80
[10] = dose: 50.0 mg/kg/injection, schedule: Q01DX005 (ip), vehicle: Klucel (hydroxypropylcellulose) (HPC)
[11] = dose: 100.0 mg/kg/injection, schedule: Q01DX005 (ip), vehicle: Klucel (hydroxypropylcellulose) (HPC)
[12] = dose: 200.0 mg/kg/injection, schedule: Q01DX005 (ip), vehicle: Klucel (hydroxypropylcellulose) (HPC)
[13] = dose: 50.0 mg/kg/injection, schedule: Q01DX005 (ip), vehicle: saline
[14] = dose: 100.0 mg/kg/injection, schedule: Q01DX005 (ip), vehicle: saline
[15] = dose: 200.0 mg/kg/injection, schedule: Q01DX005 (ip), vehicle: saline
[16] = dose: 50.0 mg/kg/injection, schedule: Q01DX005 (ip), vehicle: saline with Tween-80
[17] = dose: 100.0 mg/kg/injection, schedule: Q01DX005 (ip), vehicle: saline with Tween-80
[18] = dose: 200.0 mg/kg/injection, schedule: Q01DX005 (ip), vehicle: saline with Tween-80
[19] = dose: 50.0 mg/kg/injection, schedule: Q01DX009 (ip), vehicle: saline
[20] = dose: 100.0 mg/kg/injection, schedule: Q01DX009 (ip), vehicle: saline
[21] = dose: 200.0 mg/kg/injection, schedule: Q01DX009 (ip), vehicle: saline
[22] = dose: 100.0 mg/kg/injection, schedule: Q01DX001 (ip), vehicle: saline with Tween-80
[23] = dose: 6.25 mg/kg/injection, schedule: Q01DX009 (ip), vehicle: saline with Tween-80
[24] = dose: 12.5 mg/kg/injection, schedule: Q01DX009 (ip), vehicle: saline with Tween-80
[25] = dose: 25.0 mg/kg/injection, schedule: Q01DX009 (ip), vehicle: saline with Tween-80

Measured: T/C

Cc1ccc(NC(=S)SCc2ccc(Cl)c(Cl)c2)cc1C
inactive: [1] 116 % of control | [2] 96 % of control | [3] 113 % of control | [4] 100 % of control | [5] 109 % of control | [6] 101 % of control

Nc1ccc2c(c1)C(=O)CCC2
inactive: [7] 103 % of control | [8] 99 % of control | [9] 100 % of control

COc1c2ccoc2cc2oc(=O)ccc12
inactive: [10] 102 % of control | [11] 96 % of control | [12] 93 % of control

O=S1(=O)CCN(Cc2ccco2)CC1
inactive: [1] 100 % of control | [3] 99 % of control

OC(CO/N=C1\CCc2ccccc21)CN1CCOCC1 (stereo not given)
inactive: [13] 105 % of control | [14] 104 % of control | [15] 104 % of control

CCCCC(NC(=O)OCc1ccccc1)C(=O)NCC(=O)OC (stereo not given) (Cbz-[ξNle]-Gly-OMe)
inactive: [16] 99 % of control | [17] 100 % of control | [18] 99 % of control

Cc1ccc(C(=O)Cc2ccccc2C#N)cc1
inactive: dose: 12.5 mg/kg/injection, schedule: Q01DX005 (ip), vehicle: Klucel (hydroxypropylcellulose) (HPC) 102 % of control and 103 % of control | dose: 25.0 mg/kg/injection, schedule: Q01DX005 (ip), vehicle: Klucel (hydroxypropylcellulose) (HPC) 88 % of control and 97 % of control | [10] 97 % of control | [11] 105 % of control

CCOC(=O)c1cnc(NCCCCCCCCNc2ncc(C(=O)OCC)c(=O)[nH]2)[nH]c1=O
inactive: [19] 103 % of control | [20] 102 % of control | [21] 90 % of control and 97 % of control

O=C1OCC(c2ccccc2)(c2ccccc2)C(=O)N1O
inactive: [16] 98 % of control | [17] 103 % of control | [18] 91 % of control

O=C1c2ccccc2C2NCCCN12 (stereo not given)
inactive: [2] 93 % of control | [4] 102 % of control | [6] 107 % of control | dose: 400.0 mg/kg/injection, schedule: Q01DX009 (ip), vehicle: suspension in saline 111 % of control

O=C1CCC2CCCCC2C1 (stereo not given)
inactive: [1] 97 % of control | [3] 104 % of control | [5] 88 % of control

O=C(O)CC(NC(=O)OCc1ccccc1)C(=O)OCc1ccccc1 (stereo not given)
inactive: [7] 100 % of control | [8] 104 % of control | [9] 104 % of control

COP(=O)(O)OC.[Ti]
inactive: dose: 25.0 mg/kg/injection, schedule: Q01DX001 (ip), vehicle: saline with Tween-80 100 % of control | dose: 50.0 mg/kg/injection, schedule: Q01DX001 (ip), vehicle: saline with Tween-80 100 % of control | [22] 96 % of control

COc1ccc2c(c1)CC[C@@H]1[C@@H]2CC[C@]2(C)[C@@H](OCCOS(=O)(=O)c3ccc(C)cc3)CC[C@@H]12
inactive: [22] 99 % of control | dose: 200.0 mg/kg/injection, schedule: Q01DX001 (ip), vehicle: saline with Tween-80 101 % of control | dose: 400.0 mg/kg/injection, schedule: Q01DX001 (ip), vehicle: saline with Tween-80 101 % of control

COc1cc(/C=C\Cc2cc3c(cc2OC(C)=O)OCO3)cc(OC)c1OC
inactive: dose: 60.0 mg/kg/injection, schedule: Q01DX005 (ip), vehicle: saline with Tween-80 91 % of control | dose: 120.0 mg/kg/injection, schedule: Q01DX005 (ip), vehicle: saline with Tween-80 91 % of control | dose: 240.0 mg/kg/injection, schedule: Q01DX005 (ip), vehicle: saline with Tween-80 90 % of control

CCOC1(C)Oc2cc3c(cc2C(c2cc(OC)c(OC)c(OC)c2)C1C)OCO3 (stereo not given)
inactive: dose: 60.0 mg/kg/injection, schedule: Q01DX005 (ip), vehicle: Klucel (hydroxypropylcellulose) (HPC) 96 % of control | dose: 120.0 mg/kg/injection, schedule: Q01DX005 (ip), vehicle: Klucel (hydroxypropylcellulose) (HPC) 100 % of control | dose: 240.0 mg/kg/injection, schedule: Q01DX005 (ip), vehicle: Klucel (hydroxypropylcellulose) (HPC) 98 % of control

CCCCn1cnc2c(=S)nc(N)[nH]c21
inactive: dose: 25.0 mg/kg/injection, schedule: Q04DX003 (ip), vehicle: saline with Tween-80 109 % of control | dose: 50.0 mg/kg/injection, schedule: Q04DX003 (ip), vehicle: saline with Tween-80 118 % of control | dose: 400.0 mg/kg/injection, schedule: Q04DX003 (ip), vehicle: saline with Tween-80 90 % of control

COc1cc(O)c(C(C)=O)c(O)c1
inactive: [23] 102 % of control | [24] 93 % of control | [25] 102 % of control | [7] 100 % of control

CCN(CC)CCC(=O)c1ccccc1
inactive: [24] 102 % of control and 89 % of control | [25] 108 % of control | dose: 25.0 mg/kg/injection, schedule: Q01DX009 (ip), vehicle: saline 97 % of control | [7] 109 % of control and 91 % of control | [19] 96 % of control | [8] 123 % of control

c1ccc2c(c1)[nH]c1nc3ncncc3nc12
inactive: [19] 100 % of control | [20] 100 % of control | [21] 100 % of control

CC1CCC(OC(=O)NCCCl)CC1 (stereo not given)
inactive: [10] 97 % of control | [11] 96 % of control | [12] 101 % of control

O=S12(OC(C(F)(F)F)(C(F)(F)F)c3ccccc31)OC(C(F)(F)F)(C(F)(F)F)c1ccccc12
inactive: [10] 111 % of control | [11] 103 % of control | [12] 100 % of control

COC(CN(C)C)C(Cl)(Cl)Cl (stereo not given)
inactive: [1] 103 % of control | [3] 108 % of control | [5] 101 % of control

CCOC(=O)c1cc(OCC)c(OCC)c(OCC)c1[N+](=O)[O-]
inactive: dose: 50.0 mg/kg/injection, schedule: Q01DX009 (ip), vehicle: saline + Tween-80 + alcohol 98 % of control | dose: 100.0 mg/kg/injection, schedule: Q01DX009 (ip), vehicle: saline + Tween-80 + alcohol 100 % of control | dose: 200.0 mg/kg/injection, schedule: Q01DX009 (ip), vehicle: saline + Tween-80 + alcohol 100 % of control

CCN(Cc1cccc(S(=O)(=O)[O-])c1)c1ccc(C(=C2C=CC(=[N+](CC)Cc3cccc(S(=O)(=O)O)c3)C=C2)c2ccccc2S(=O)(=O)O)cc1
inactive: [13] 104 % of control | [14] 96 % of control | [15] 96 % of control

CCCCNP(=O)(N1CC1)N1CC1
inactive: dose: 0.2 mg/kg/injection, schedule: Q04DX003 (ip), vehicle: saline 95 % of control | dose: 0.4 mg/kg/injection, schedule: Q04DX003 (ip), vehicle: saline 104 % of control | dose: 0.8 mg/kg/injection, schedule: Q04DX003 (ip), vehicle: saline 118 % of control | dose: 12.5 mg/kg/injection, schedule: Q01DX009 (ip), vehicle: saline 118 % of control | dose: 25.0 mg/kg/injection, schedule: Q04DX003 (ip), vehicle: saline 86 % of control
active: dose: 6.0 mg/kg/injection, schedule: Q04DX003 (ip), vehicle: saline 195 % of control | dose: 6.25 mg/kg/injection, schedule: Q01DX009 (ip), vehicle: saline 172 % of control | dose: 6.25 mg/kg/injection, schedule: Q04DX003 (ip), vehicle: saline 154 % of control | dose: 12.5 mg/kg/injection, schedule: Q04DX003 (ip), vehicle: saline 172 % of control

O=C1CCc2cc([N+](=O)[O-])cc3c2N1CCC3
inactive: [10] 95 % of control and 96 % of control | [11] 104 % of control | [12] 98 % of control and 96 % of control

Cc1ccc(CO)c2ccccc12
inactive: [25] 96 % of control | [7] 107 % of control | [8] 96 % of control | [9] 96 % of control

COc1cc(NC(C)CCCN)c2ncccc2c1Sc1ccc(Cl)cc1 (stereo not given)
inactive: dose: 3.13 mg/kg/injection, schedule: Q01DX009 (ip), vehicle: saline with Tween-80 89 % of control | [23] 94 % of control

CC(C)=CCc1cc(O)c(CC=C(C)C)cc1O
inactive: [25] 101 % of control | [7] 106 % of control | [8] 96 % of control | [9] 96 % of control
